Assay results as given in patent publication US7504517B2, “Kv1.5 potassium channel inhibitors” (Wyeth, priority 2006, dated 2009).

Legend:
[1] = biological target: HERG (Homo sapiens, UniProt Q12809); experiment: HERG Patch Clamp EP; conditions: for inhibition at 10 µM: human, HEK cells stably overexpressing HERG
[2] = system: L-type calcium channels; experiment: FLIPR L-Type Calcium Channel Assay; assay type: cell-based, murine; conditions: HL-1 cells expressing endogenous L-type calcium channels; calcium influx after 20 mM KCl; read-out: L-type Ca^2+ IC50
Procedure: 50 μL per well test compounds are added to the plates and further incubated for 15 min. in a 5% CO2 37° C. incubator. All final solutions contain the anion exchange inhibitor, probenecid (2.5 mM). The 96-well plates are then placed in the center position of the FLIPR 1 (Fluorometric Imaging Plate Reader, Molecular Devices Corporation). Cell monolayers in each well are simultaneously illuminated at 488 nm with an Argon ion laser, and fluorescence emission is monitored using a 510-570 nm bandpass filter and a cooled CCD camera. To depolarize the plasma membrane and activate L-type calcium channels, 50 μL per well of 20 mM KCl (final concentration) are dispensed simultaneously to all 96 wells using the FLIPR's automatic 96-well pipettor. Fluorescence measurements are captured for 5 min. following KCl addition. Calcium influx, expressed as % control, is calculated for each concentration of test compound and concentration-response curves and IC50 values are generated using GraphPad Prism 4.0.

[3] = biological target: T1, Kv1.5 (Homo sapiens, UniProt P22460); experiment: Kv1.5 Patch Clamp EP; assay type: cell-based; conditions: whole cell patch clamp; for IC50: HEK or LTK- cells, at least four concentrations, n=3
T1 construct: expressed in transfected cells; host or cells: HEK or LTK- cells
T1 sequence (P22460 whole entry): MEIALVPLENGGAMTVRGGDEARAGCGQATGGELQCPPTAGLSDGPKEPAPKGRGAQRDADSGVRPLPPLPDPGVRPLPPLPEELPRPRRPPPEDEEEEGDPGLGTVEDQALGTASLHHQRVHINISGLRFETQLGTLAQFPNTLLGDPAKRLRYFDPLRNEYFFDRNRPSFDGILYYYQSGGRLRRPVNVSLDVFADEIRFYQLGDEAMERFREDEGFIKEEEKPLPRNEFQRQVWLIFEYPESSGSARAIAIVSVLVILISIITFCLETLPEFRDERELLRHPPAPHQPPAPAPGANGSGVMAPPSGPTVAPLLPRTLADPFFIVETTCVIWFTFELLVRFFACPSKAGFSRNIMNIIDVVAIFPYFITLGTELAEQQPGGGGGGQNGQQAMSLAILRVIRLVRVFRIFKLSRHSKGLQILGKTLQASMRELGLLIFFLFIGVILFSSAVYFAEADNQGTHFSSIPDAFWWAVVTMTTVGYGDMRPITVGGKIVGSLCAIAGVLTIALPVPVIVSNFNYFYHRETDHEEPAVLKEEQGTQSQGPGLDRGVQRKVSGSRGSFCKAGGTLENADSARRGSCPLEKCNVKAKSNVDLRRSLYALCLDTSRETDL
Procedure: The external solution is standard Tyrodes solution. […] Inhibition was measured at the end of the 1 second pulses and expressed relative to controls. Initial Kv1.5 inhibition is estimated by single point determinations done at 1 μM.

[4] = 1.0 μM, single point, Kv1.5 stably over expressed in HEK or LTK- cells

Sequence of HERG (Q12809 whole entry): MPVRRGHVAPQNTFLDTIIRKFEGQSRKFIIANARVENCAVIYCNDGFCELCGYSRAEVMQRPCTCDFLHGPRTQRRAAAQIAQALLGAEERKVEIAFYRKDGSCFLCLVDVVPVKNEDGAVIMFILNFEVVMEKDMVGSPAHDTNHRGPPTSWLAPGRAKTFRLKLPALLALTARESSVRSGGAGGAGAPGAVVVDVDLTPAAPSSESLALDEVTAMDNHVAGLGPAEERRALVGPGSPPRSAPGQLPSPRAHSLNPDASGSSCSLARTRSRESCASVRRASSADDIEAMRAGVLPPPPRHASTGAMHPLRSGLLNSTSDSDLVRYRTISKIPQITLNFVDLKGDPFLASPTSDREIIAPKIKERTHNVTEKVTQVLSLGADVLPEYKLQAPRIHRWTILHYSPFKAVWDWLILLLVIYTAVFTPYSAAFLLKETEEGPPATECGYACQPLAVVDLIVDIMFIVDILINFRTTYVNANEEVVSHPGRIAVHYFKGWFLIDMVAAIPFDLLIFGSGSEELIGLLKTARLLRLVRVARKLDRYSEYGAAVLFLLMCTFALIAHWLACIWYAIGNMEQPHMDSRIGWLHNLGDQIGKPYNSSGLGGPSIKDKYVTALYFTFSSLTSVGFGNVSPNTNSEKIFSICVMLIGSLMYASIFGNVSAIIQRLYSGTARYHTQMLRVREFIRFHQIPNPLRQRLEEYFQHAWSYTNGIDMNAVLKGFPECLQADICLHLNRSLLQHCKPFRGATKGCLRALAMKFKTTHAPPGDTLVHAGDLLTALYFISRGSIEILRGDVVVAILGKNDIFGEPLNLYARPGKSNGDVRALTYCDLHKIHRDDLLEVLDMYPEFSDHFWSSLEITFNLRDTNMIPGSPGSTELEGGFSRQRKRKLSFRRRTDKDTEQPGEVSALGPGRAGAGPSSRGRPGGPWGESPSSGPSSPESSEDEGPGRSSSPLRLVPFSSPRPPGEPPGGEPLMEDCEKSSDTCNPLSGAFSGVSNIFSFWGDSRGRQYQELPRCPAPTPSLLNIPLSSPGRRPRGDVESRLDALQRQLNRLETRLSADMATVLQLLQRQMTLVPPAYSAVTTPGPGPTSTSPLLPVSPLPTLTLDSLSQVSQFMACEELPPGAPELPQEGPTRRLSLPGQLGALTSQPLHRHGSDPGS

Row | Compound | IC50 [1] [µM] | inhibition at 10 µM [1] [%] | IC50 [2] [µM] | inhibition at 1 µM [3, 4] [%] | IC50 [3] [µM] | HERG % Inhib. @ 10 μM ([1]; 10 μM, single point, whole cell patch clamp, HERG stably over expressed in HEK cells, peak tail current) [%] | Kv1.5% inhibition @ 1.0 μM [3, 4] [%]
1 | COc1ccc(CCN2C(=O)N(NS(C)(=O)=O)CC2c2ccc(C3CC3)cc2)cc1 (centres unmarked) [Compound 28, 1-[(Methylsulfonyl)amino]-3-[(4-methoxyphenyl)ethyl]-4-(4-cyclopropylphenyl)-2-imidazolidinone] | 10.3 | 30 | 16 | 89 | 0.184 |  | 
2 | COc1ccc(CCN2C(=O)N(NS(C)(=O)=O)C[C@@H]2c2ccc(OC)cc2)cc1 [Compound 107, N-{(4S)-4-(4-methoxyphenyl)-3-[2-(4-methoxyphenyl)ethyl]-2-oxoimidazolidin-1-yl}methanesulfonamide] | 54 |  | 39 | 41 | 1.1 |  | 
3 | COc1ccc(CCN2C(=O)N(NS(=O)(=O)CF)CC2c2ccc(OC)cc2)cc1 (centres unmarked) [Compound 35, 1-(Fluoromethylsulfonylamino)-3-[2-(4-methoxyphenyl)ethyl]-4-(4-methoxy-phenyl)-2-imidazolidinone] |  | 14 | 30 | 71 |  |  | 
4 | COc1ccc(CCN2C(=O)N(NCc3ccccc3)CC2c2ccc(C)c(C)c2)cc1 (centres unmarked) [Compound 88, 1-Benzylamino-4-(3,4-dimethylphenyl)-3-[2-(4-methoxyphenyl)ethyl]-2-imidazolidinone] |  | 90 | 11 | 94 | 0.399 |  | 
5 | COc1ccc(CCN2C(=O)N(NC(=O)CS(=O)(=O)N(C)C)CC2c2ccc(C3CC3)cc2)cc1 (centres unmarked) [Compound 82, N-(4-(4-cyclopropylphenyl)-3-(4-methoxyphenethyl)-2-oxoimidazolidin-1-yl)-2-(N,N-dimethylsulfamoyl)acetamide] |  | 42 | 30 | 72 |  |  | 
6 | COc1ccc(CCCN2C(=O)N(NS(=O)(=O)CC(N)=O)CC2c2ccc(C3CC3)cc2)cc1 (centres unmarked) [Compound 104, 1-[(2-Amino-2-oxoethyl)sulfonylamino]-3-[3-(4-methoxyphenyl)propyl]-4-(4-cyclopropylphenyl)-2-imidazolidinone] |  | 56 | 21 | 87 |  |  | 
7 | COc1ccc(CCN2C(=O)N(NCc3cnc4ccccc4c3)CC2c2ccc(C)c(C)c2)cc1 (centres unmarked) [Compound 96, 4-(3,4-Dimethylphenyl)-3-[2-(4-methoxyphenyl)ethyl]-1-[(quinolin-3-ylmethyl)-amino]-2-imidazolidinone] |  | 87 | 1.9 | 86 |  |  | 
8 | COc1ccc(CCN2C(=O)N(NS(N)(=O)=O)CC2c2ccc(C(C)(C)C)cc2)cc1 (centres unmarked) [Compound 9, 1-(Aminosulfonylamino)-3-[2-(4-methoxyphenyl)ethyl]-4-[4-(tert-butyl)phenyl]-2-imidazolidinone] | 7.3 | 62 | 23 | 90 | 0.689 |  | 
9 | COc1ccc(CCN2C(=O)N(NS(C)(=O)=O)CC2c2ccc(C(C)(C)C)cc2)cc1 (centres unmarked) [Compound 24, 1-(Methylsulfonylamino)-3-[(4-methoxyphenyl)ethyl]-4-[4-(tert-butyl)phenyl]-imidazolidinone] | 6.4 | 74 | 10 | 82 | 0.514 |  | 
10 | COc1ccc(CCCN2C(=O)N(NS(N)(=O)=O)CC2c2ccc(OC)cc2)cc1 (centres unmarked) [Compound 44, 1-(Sulfamoylamino)-3-[3-(4-methoxyphenyl)propyl]-4-[(4-methoxy)phenyl]-2-imidazolidinone] |  | 22 | 25 | 60 |  |  | 
11 | COc1ccc(CCN2C(=O)N(NS(C)(=O)=O)CC2c2ccc(C)c(OC)c2)cc1 (centres unmarked) [Compound 13, 1-(Methylsulfonylamino)-3-[2-(4-methoxyphenyl)ethyl]-4-[(3-methoxy-4-methyl)phenyl]-2-imidazolidinone] |  | 10 | 27 | 83 |  |  | 
12 | COc1ccc(CCN2C(=O)N(NS(=O)(=O)Cc3ccccc3)CC2c2ccc(OC)cc2)cc1 (centres unmarked) [Compound 63, 1-[(Phenylmethyl)sulfonylamino]-3-[2-(4-methoxyphenyl)ethyl]-4-(4-methoxyphenyl)-2-imidazolidinone] |  | 44 | 6.3 | 95 |  |  | 
13 | COc1ccc(CCN2C(=O)N(NS(=O)(=O)CC#N)CC2c2ccc3c(c2)OCCO3)cc1 (centres unmarked) [Compound 40, 1-(Cyanomethylsulfonylamino)-3-[2-(4-methoxyphenyl)ethyl]-4-[(2,3-dihydro-benzo[b][1,4]dioxin-6-yl)]-2-imidazolidinone] |  | 1 | 30 | 70 |  |  | 
14 | CC(C)(C)c1ccc(C2CN(NS(C)(=O)=O)C(=O)N2CCCc2ccccc2)cc1 (centres unmarked) [Compound 47, 1-(Methylsulfonylamino)-3-(3-phenylpropyl)-4-[4-(tert-butyl)phenyl]-2-imidazolidinone] |  | 65 | 26 | 73 |  |  | 
15 | COc1ccc(CCN2C(=O)N(NS(C)(=O)=O)CC2c2ccc(OC(F)(F)F)cc2)cc1 (centres unmarked) [Compound 27, 1-[(Methylsulfonyl)amino]-3-[2-(4-methoxyphenyl)ethyl]-4-(4-trifluoro-methoxyphenyl)-2-imidazolidinone] |  |  | 19 |  |  | 63 | 56
16 | CCN(CC)c1ccc(C2CN(NS(C)(=O)=O)C(=O)N2CCc2ccc(OC)cc2)cc1 (centres unmarked) [Compound 25, 1-(Methylsulfonylamino)-3-[2-(4-methoxyphenyl)ethyl]-4-[(4-diethylamino)-phenyl]-2-imidazolidinone] |  | 31 | 28 | 84 |  |  | 
17 | COc1ccc(CCN2C(=O)N(NS(C)(=O)=O)CC2c2ccc(OC)cc2)cc1 (centres unmarked) [Compound 23, 1-(Methylsulfonylamino)-3-[2-(4-methoxyphenyl)ethyl]-4-(4-methoxyphenyl)-2-imidazolidinone] | 23.6 | 21 | 30 | 66 | 0.703 |  | 
18 | COc1ccc(CCN2C(=O)N(NS(=O)(=O)CF)CC2c2ccc(C3CC3)cc2)cc1 (centres unmarked) [Compound 34, 1-(Fluoromethylsulfonylamino)-3-[2-(4-methoxyphenyl)ethyl]-4-(4-cyclopropyl-phenyl)-2-imidazolidinone] |  | 38 | 18 | 98 |  |  | 
19 | COc1ccc(CCN2C(=O)N(NS(=O)(=O)C3CC3)CC2c2ccc(OC)cc2)cc1 (centres unmarked) [Compound 29, 1-(Cyclopropylsulfonylamino)-3-[(4-methoxyphenyl)ethyl]-4-(4-methoxyphenyl)-2-imidazolidinone] |  | 31 | 34 | 85 |  |  | 
20 | COc1ccc(CCN2C(=O)N(NCc3ccc(N(C)C)cc3)CC2c2ccc(OC)cc2)cc1 (centres unmarked) [Compound 90, 1-[(4-(Dimethylamino)phenylmethyl)amino]-3-[2-(4-methoxyphenyl)ethyl]-4-(4-methoxyphenyl)-2-imidazolidinone] |  | 28 | 7 | 74 |  |  | 
21 | COc1ccc(CCN2C(=O)N(NS(=O)(=O)CC(N)=O)CC2c2ccc(C3CC3)cc2)cc1 (centres unmarked) [Compound 52, 1-[(2-Amino-2-oxoethyl)sulfonylamino]-3-[2-(4-methoxyphenyl)ethyl]-4-(4-cyclopropylphenyl)-2-imidazolidinone] |  | 29 | 16 | 80 |  |  | 
22 | COc1ccc(CCN2C(=O)N(NS(=O)(=O)Cc3cccnc3)CC2c2ccc(OC)cc2)cc1 (centres unmarked) [Compound 66, 1-[(Pyridin-3-yl)methylsulfonyl]amino-3-[2-(4-methoxyphenyl)ethyl]-4-(4-methoxyphenyl)-2-imidazolidinone] | 12.6 |  | 30 | 86 | 0.257 |  | 
23 | COc1ccc(CCN2C(=O)N(NS(C)(=O)=O)CC2c2ccc(OC)c(C)c2)cc1 (centres unmarked) [Compound 12, 1-(Methylsulfonylamino)-3-[2-(4-methoxyphenyl)ethyl]-4-[(3-methyl-4-methoxy)phenyl]-2-imidazolidinone] |  | 19 | 38 | 82 |  |  | 
24 | CCCS(=O)(=O)NN1CC(c2ccc(C3CC3)cc2)N(CCc2ccc(OC)cc2)C1=O (centres unmarked) [Compound 30, 1-(Propylsulfonylamino)-3-[(4-methoxyphenyl)ethyl]-4-(4-cyclopropylphenyl)-2-imidazolidinone] |  | 62 | 3.3 | 88 |  |  | 
25 | COc1ccc(CCN2C(=O)N(NCc3ccc(F)cc3)CC2c2ccc(C)c(C)c2)cc1 (centres unmarked) [Compound 89, 1-[(4-Fluorophenylmethyl)amino]-3-[2-(4-methoxyphenyl)ethyl]-4-(3,4-dimethylphenyl)-2-imidazolidinone] |  | 98 | 7.6 | 85 |  |  | 
